System: vascular injury-induced neointimal hyperplasia
Assay: Murine restenosis model: photoactivated rose bengal vascular injury of the femoral artery, histomorphometric analysis
Assay type: in vivo, C57B1/6 mice
Conditions: for Stenosis Index (Mean ± SE), neointima/media ratio in areas of maximum neointimal hyperplasia, 4 weeks: 4 weeks after injury, i.p., EGF-Gen 0.1 mg/kg/dose twice daily for 28 days, Gen or quinazolines 2 mg/kg/dose once per day in 10% DMSO
Method: Three to four week old C57 B1/6 male mice (Taconic, Germantown, N.Y.) were housed in micro-isolator cages on a 12-hour day/night cycle and kept for 2 weeks on the Paigen's cocoa butter diet of 15.8% fat, 1.25% cholesterol and 0.5% sodium cholate (Harlan Teklad, Madison, Wis., U.S.A.) to induce high plasma cholesterol levels similar to those of patients with lipid disorders.
Mice were injected with 300 microliters of a 3 mg/ml photoactivated rose bengal solution (Aldrich, Milwaukee, Wis.) in sterile PBS via the tail vein and anesthetized with ketamine/xylazine solution (100 mg ketamine/kg and 5 […]). Photoactivation of rose bengal using percutaneous irradiation with a green light source (300 Watt Xenon arced lamp equipped with a 550 nanometer broad band interference filter, Oriel Scientific, Stratford, Conn.) was performed on the shaved left leg by placing a 3.2 mm glass fiber optic light guide directly into the left femoral vein/artery for 10 minutes. The unirradiated right femoral artery served as an internal control.
Following irradiation the mice were treated for either 14 days or 28 days with intraperitoneal injections of (1) EGF-Gen conjugate or unconjugated EGF (modified EGF not conjugated to genistein) at a dose level of 0. I mg/kg/dose once in the morning and once in the evening; or (2) 2 mg/kg/dose of unconjugated genistein or derivatives of 6,7-dimethoxyquinizalone dissolved in 10% DMSO once per day; or (3) with PBS.
At the times indicated, the animals were euthanized with ketamine/xylazine and perfused with PBS followed by 4% phosphate buffered formalin. PBS and formalin were pumped through the left ventricle of the heart and allowed to exit through a 3 mm incision through the interior wall of the right ventricle. […] Serial sections were examined for areas of maximum neointimal hyperplasia for which the ratios of neointima/media (stenosis index) were determined. […]
All numeric data are shown as mean±SEM. […] Cumulative percentage plots were analyzed using Wilcoxon statistics by Statview, Abacus Concepts, Inc., Berkeley, Calif. […]

Compound: O=c1c(-c2ccc(O)cc2)coc2cc(O)cc(O)c12 [Gen, 5,7,4'-trihydroxyisoflavone, reference compound]
- Stenosis Index (Mean ± SE), neointima/media ratio in areas of maximum neointimal hyperplasia, 4 weeks: 1.03 ± 0.18
- Stenosis Index (Mean ± SE), neointima/media ratio in areas of maximum neointimal hyperplasia, 4 weeks (listed as unconjugated Gen): 1.03±0.18
- Effect on neointimal hyperplasia / neointima formation (in words) (injured femoral arteries, EGF-Gen at less than 5% of the highest nontoxic dose): ineffective
